This note sets out measurements from ChEMBL document CHEMBL1137775, “Structure-based design of a benzodiazepine scaffold yields a potent allosteric inhibitor of hepatitis C NS5B RNA polymerase” (J Med Chem, 2009).

For test [1], the system named is Hepatitis C virus. In words: Inhibition of HCV 1b con1 isolate recombinant NS5B Cdelta21 RNA dependent RNA polymerase-mediated primer-dependent transcription by SPA. Details: species or system Hepacivirus hominis.
In test [2] the test system is Hepatitis C virus. In words: Antiviral activity against HCV 1b having NS5B E1202G/T1280I/K1846 mutation infected in human hepatoma cells after 3 days by replicon luciferase assay. Type of test: functional, organism-based, Hepacivirus hominis. The note with it: genotype 1b, 72 h. In general terms: A replicon is a self-replicating genome or part of one, used to study replication in cells.

Test [3] concerns Hepatitis C virus. In words: Binding affinity to HCV 1b con1 isolate recombinant NS5B Cdelta21 RNA dependent RNA polymerase overexpressed in Escherichia coli BL21(DE3) by surface plasmon resonance experiment. Details: species or system Hepacivirus hominis.

The IC50 is the concentration needed to halve the response being measured. As a reminder, the EC50 is the concentration needed to bring the measured effect to its halfway point. Higher therefore signals weaker potency. On to `Cc1cccc(C(=O)N2c3cccc(O)c3NC3=C([C@H]2c2ccc(OCc4ccccc4)cc2F)S(=O)(=O)CC(C)(C)C3)n1`, for which the half-inhibitory concentration (IC50) in the test on Hepatitis C virus [1] was 6700 nM. In the test with Hepatitis C virus [2], this compound registered an EC50 of 4800 nM.

Take `Cc1cccc(C(=O)N2c3cccc(O)c3NC3=C([C@@H]2c2ccc(OCc4ccccc4)cc2F)S(=O)(=O)CC(C)(C)C3)n1`: in the test on Hepatitis C virus [1], the IC50 was found to be 26 nM. The compound further displayed an EC50 in the test with Hepatitis C virus [2] of 29 nM.

A word on the Kd: it is the constant that tells how readily two partners part at equilibrium. Regarding `Cc1cccc(C(=O)N2c3cccc(O)c3NC3=C(C(=O)CC(C)(C)C3)[C@@H]2c2ccc(OCc3ccccc3)cc2F)n1`, the Kd in the test with Hepatitis C virus [3] was found to be 15 nM. For the same compound, the IC50 with Hepatitis C virus [1] came out at 74 nM. In the test with Hepatitis C virus [2], the EC50 was 400 nM.

Turning to `CC(=O)N1c2cccc(O)c2NC2=C(C(=O)CC(C)(C)C2)[C@@H]1c1ccc(OCc2ccccc2)cc1Cl`, in the test with Hepatitis C virus [2], the EC50 was 1200 nM.

For `Cc1cccc(C(=O)N2c3cccc(O)c3NC3=C(C2c2ccc(OCc4ccccc4)cc2F)S(=O)(=O)CC(C)(C)C3)n1` (racemic), the IC50 in the test with Hepatitis C virus [1] is 120 nM. In the test with Hepatitis C virus [2], this compound showed an EC50 of 52 nM.
